In US20120157396A1, “PYRAZINAMIDE FOR IMMUNOSTIMULATION AND THE TREATMENT OF LEISHMANIASES” (priority 2009, published 2012):
Read-outs that look alike come from different tables or passages of the source.

Columns and labels:
L. major amastigotes = L. major amastigotes within J774 cells, parasite survival; format: cell-based; conditions: for MIC50: Leishmania major
Description: To distinguish between leishmaniostatic and leishmanicidal effects, a time course survival curve was generated for J774 cultures infected with L. major.
Amastigotes were generated by infecting J774 murine macrophages. Infections were carried after seeding cells in 8-well Labtek chambers (Thermo Physic Scientific, Rochester N.Y.) at a concentration of 5×10^4 cells/well. To avoid multiplication, cells were incubated with mitomycin C at a concentration of 0.8 μg/ml for 16 h. Infective-stage promastigotes (metacyclics) of L. major were isolated from stationary cultures (4-5 day-old) by Ficoll enrichment, added to macrophage cultures (5 promastigotes: 1 cell) and kept overnight at 37° C. in the presence of 5% CO2 and DMEM with 10% FCS. Sixteen hours later, non-internalized promastigotes were then washed and replaced by culture medium containing the drug. Forty-eight hours later, wells were detached from the slides, stained with Diff-Quick (Dade Behring, Newark, Del.) and counted under light microscope. Parasite burden was determined by observation under light microscopy (1000×) as the number of amastigotes per one hundred J774 cells. Percentage of survival of amastigotes and MIC50 were calculated as above.

[1] = tested on: bone marrow-derived macrophages; experiment: Cytokine and NO production in bone marrow-derived macrophages; format: cell-based, C57BL/6 mice; set-up: unit not given here; conditions: macrophage, drug 100 μM
Description: (§1) Bone marrow cells were obtained and were grown in the presence of the cytokines M-CSF or GM-CSF to induce differentiation of macrophages or dendritic cells, respectively. The study of the immune response of dendritic cells was included because of their importance for the initiation of the immune response against L. major. […] Again, this effect was rescued by the treatment of macrophages with compounds of formula I, namely, either PZA or 5-Cl PZA.
(§2) Parasite and cell culture. L. major clone V1 (MHOM/IL/80/Friedlin) promastigotes were grown at 26° C. in medium 199 supplemented with 20% heat-inactivated fetal calf serum (FCS, Gemini, Sacramento), 100 U/ml penicillin, 100 μg/ml streptomycin, 2 mM L-glutamine, 40 mM Hepes, 0.1 mM adenine (in 50 mM Hepes) and […] hemin (in 50% triethanolamine). The macrophage murine cell line J774 (Cat. No. TIB-67TM) was cultured in DMEM (Sigma-Aldrich, St. Louis, Mo.) with 10% FCS, 100 U/ml penicillin, 100 μg/ml streptomycin and 2 mM glutamine (Sigma-Aldrich) at 37° C. under 5% CO2 atmosphere. Culture medium was changed twice per week. Subcultures were performed when monolayers covered 90% of the bottom of culture flasks. For experiments involving macrophages and dendritic cells, bone marrow was obtained from C57BL/6 mouse femurs and grown for 6-8 days in RPMI 1640 supplemented as above in the presence of 10% L929 conditioned medium (to generate macrophages) or 20 ng/ml GM-CSF (to generate dendritic cells).
(§3) J774 cells or bone marrow-derived cells were seeded onto 24-well plates at a concentration of 5×10^5 cells/ml. Twenty-four hours later, PZA was added to the wells at different concentrations in the absence or presence of L. major (1:5 parasite ratio). In some experiments, J774 cells were treated with amphotericin B (0.1, 0.5, or 1 μg/ml). Two control groups were also included in this experiment: a positive control of activation consisting in a group of uninfected cells treated with 100 ng/ml LPS and 10 IU IFN-γ as a positive control of activation, and a negative control of activation, consisting in uninfected, untreated cells. Cell cultures were maintained overnight, and then cultured for an additional 6 h with brefeldin A (10 μg/ml), harvested by scraping and fixed in 2% paraformaldehyde. Prior to staining, cells were incubated with an anti-Fc III/II receptor and 10% normal mouse serum (NMS) in PBS containing 0.1% BSA, 0.01% NaN3. Cells were permeabilized with saponin and stained for the surface markers CD80 (clone 16-10A1), CD86 (clone GL1), MHCI (clone 28-14-8), MHCII (clone M5/114.15.2) and for the cytokines IL-12p40/p70 (clone C17.8) and IL-10 (clone JESS-16E3). Incubations were carried out for 30 min on ice. All antibodies were purchased from BD Biosciences or eBioscience. For each sample, at least 50,000 cells were analyzed. The data were collected and analyzed using CELLQuest software and a FACScalibur flow cytometer (Becton Dickinson, San Jose, Calif.).

[2] = tested on: bone marrow-derived dendritic cells; experiment: Cytokine and NO production in bone marrow-derived dendritic cells; format: cell-based, C57BL/6 mice; set-up: unit not given here; conditions: dendritic cell, drug 100 μM
Description: as §1, §2, §3

[3] = tested on: bone marrow-derived dendritic cells; experiment: as above; format: cell-based, C57BL/6 mice; set-up: unit not given here; conditions: dendritic cell, drug 100 μM; remark: listed apart in the source
splenocytes = experiment: Lymphoproliferative response of splenocytes from L. donovani-infected treated mice; format: cell-based, C57BL/6 mice; conditions: PZA-treated mice, dose dependent
Description: FIG. 5. PZA increases proliferation in treated splenocytes. Positive proliferation (measured as loss of CFSE staining at day 5) at 3 wk post infection in CFSE-stained splenocytes from C75BL/6 mice infected with L. donovani and treated with drug vehicle (3.8% DMSO, control) or increasing concentrations of PZA (n=3±SD), following in vitro restimulation with 25 μg/ml leishmanial antigen or 2 μg/ml concanavalin A.
VL typically induces T cell anergy toward leishmanial antigens.

[4] = tested on: dendritic cells lacking TLR-2 and -4; experiment: Activation of bone marrow-derived dendritic cells from TLR-2/-4 double knock out mice; format: cell-based
Description: FIG. 11. A. The immunostimulatory effect of PZA is independent of TLR engagement. Mean fluorescence values for the expression of CD80, CD86, MHC Class I and MHC Class II and B. IL-12, IL-10 and iNOS expression determined by flow cytometry in bone marrow-derived dendritic cells from TLR-2/-4 double knock out mice, infected or not with L. major, and treated with 10 and 100 μM PZA. Uninfected cells were treated with 10 U IFN-γ/100 ng/ml LPS as a positive control of activation. Unstimulated, untreated cells are also shown. Data are expressed as mean±standard deviation of n=3 determinations. *: Statistically significant P≦0.03; **: Statistically significant P≦0.005; ***: Statistically significant, P≦0.0001 when compared to the group infected with L. major and untreated.
In this experiment, we treated the dendritic cells as described above, in the presence or absence of L. major infection. Again as a positive control, cells were primed with IFN-γ and LPS. […] In the same way, the expression of IL-12, IL-10 and iNOS was increased in treated cells, irrespective of infection (FIG. 11B).

Compound | IL-10 production ([1]; infected with L. major (Lm)) | IL-12 production ([1]; infected with L. major (Lm)) | IL-10 production ([1]; uninfected) | IL-12 production ([1]; uninfected) | IL-10 production ([2]; infected with L. major (Lm)) | IL-12 production ([2]; infected with L. major (Lm)) | IL-10 production ([2]; uninfected) | IL-12 production ([2]; uninfected) | NO production ([3]; infected with L. major (Lm)) | TNF-α production ([3]; infected with L. major (Lm)) | NO production ([3]; uninfected) | TNF-α production ([3]; uninfected) | also measured
NC(=O)c1cnc(Cl)cn1 [5-Cl PZA, 5-chloro pyrazinamide] | 499 ± 312 | 1821 ± 645 | 415 ± 210 | 1767 ± 526 | 342 ± 398 | 2121 ± 945 | 265 ± 213 | 1962 ± 765 | 876 ± 172 | 2986 ± 566 | 745 ± 211 | 17684 ± 678 | MIC50 reduced relative to PZA (L. major amastigotes; L. major amastigotes within J774 cells): 5 fold; MIC50 for PZA analogs (L. major amastigotes; L. major amastigotes within J774 cells (Table Ia)): 2.1 μM
NC(=O)c1cnccn1 [PZA, pyrazinamide] | 199 ± 120 | 921 ± 445 | 155 ± 21 | 867 ± 546 | 203 ± 60 | 1035 ± 785 | 185 ± 63 | 956 ± 145 | 699 ± 612 | 1856 ± 125 | 545 ± 221 | 1654 ± 546 | increase in MIC50 of amastigotes versus promastigotes (L. major amastigotes; 48 hours post infection): 10 fold; MIC50 (L. major amastigotes; 48 h, amastigote in J774, 48 h, read-out: MIC50): 10.2 µg/mL; MIC50 (L. major amastigotes; L. major amastigotes within J774 cells (Table Ia), read-out: MIC50 for PZA analogs): 9.5 µM; percentage of survival compared to untreated control (L. major amastigotes; amastigote in J774, PZA 1 μg/ml, 48 h): 89 ± 12%; percentage of survival compared to untreated control (L. major amastigotes; amastigote in J774, PZA 12.5 μg/ml, 48 h): 47 ± 12%; percentage of survival compared to untreated control (L. major amastigotes; amastigote in J774, PZA 100 μg/ml, 48 h): 23 ± 10%; percentage of survival compared to untreated control (L. major amastigotes; amastigote in J774, PZA 1000 μg/ml, 48 h): 20 ± 15%; proliferation of splenocytes to leishmanial antigens and concanavalin A (splenocytes): recovered their ability to proliferate; expression of activation markers and MHC Class molecules ([4]; 10 and 100 μM PZA, dose-dependent, TLR-2/-4 double knock out dendritic cells): increased expression of activation markers and MHC Class molecules; expression of IL-12, IL-10 and iNOS ([4]; PZA-treated cells, irrespective of infection): increased
